Test results: ChEMBL document CHEMBL6134865, “Rational Design of Methylene Blue-Raloxifene Conjugates for Efficient Breast Tumor Elimination Triggered by ERα Degradation” (J Med Chem, 2025)
Calls of active or inactive are those of the source. The calls are words filed in the database; no cut-off is given here.

Key:
MCF7 [1] = experiment: Induction of ROS generation in human MCF7 cells assessed as cell percentage with elevated ROS at 1 uM incubated for 6 hrs followed by irradiation with 660 nm 0.4 W/cm2 light for 2 min by DCFH-DA probe based flow cytometric analysis (reference value: 0.2 %); format: functional; conditions: time 362 min, 6.033 h
MCF7 [2] = experiment: Photothermal effect in human MCF7 cells assessed as temperature of cell culture medium at 1 uM irradiated with 660 nm 0.4 W/cm2 light for 3 min (reference value: 26 degreeC); format: ADME, cell-based; conditions: mcf7, 0.05 h
MCF7 [3] = experiment: cells; conditions: Homo sapiens, MCF7, light or radiation study
Description: Antiproliferative activity against human MCF7 cells assessed as inhibition of cell proliferation incubated for 48 hrs with 660 nm 0.4 W/cm2 light irradiation for 1 min at 6th hr of incubation time by MTT assay

[4] = Drug uptake in human MCF7 cell nucleus assessed as increase in red fluorescence at 1 uM incubated for 6 hrs by fluorescence imaging analysis; format: ADME, subcellular; conditions: mcf7, 6 h
[5] = Toxicity in female BALB/c mouse xenografted with human MCF7 cells assessed as effect on heart histology at 5 mg/kg, iv measured after 14 days by H and E staining based analysis; format: organism-based; conditions: in vivo, 336 h, time 14 day
[6] = Toxicity in female BALB/c mouse xenografted with human MCF7 cells assessed as change in ALT level at 5 mg/kg, iv measured after 14 days; format: organism-based; conditions: in vivo, 336 h, time 14 day
in vivo [7] = conditions: Sprague-Dawley, rat, iv, 5 mg/kg
Description: Cmax in Sprague-Dawley rat at 5 mg/kg, iv measured after 0.5 to 168 hrs by LC-MS analysis

MCF7 [8] = experiment: Induction of ROS generation in human MCF7 cells assessed as increase in green fluorescence at 1 uM incubated for 6 hrs followed by irradiation with 660 nm 0.4 W/cm2 light for 5 min by fluorescence imaging analysis; format: functional, cell-based; conditions: time 365.0 min
[9] = Toxicity in female BALB/c mouse xenografted with human MCF7 cells assessed as effect on lung histology at 5 mg/kg, iv measured after 14 days by H and E staining based analysis; format: organism-based; conditions: in vivo, 336 h, time 14 day
MCF7 [10] = experiment: cells; conditions: Homo sapiens, MCF7, light or radiation study; remark: listed apart in the source
Description: Antiproliferative activity against human MCF7 cells assessed as inhibition of cell proliferation incubated for 48 hrs with 660 nm 0.4 W/cm2 light irradiation for 5 min at 6th hr of incubation time by MTT assay

MCF7 [11] = experiment: Photothermal effect in human MCF7 cells assessed as temperature of cell culture medium at 1 uM irradiated with 660 nm 0.4 W/cm2 light for 2 min (reference value: 26 degreeC); format: ADME, cell-based; conditions: mcf7, 2 min
MCF7 [12] = experiment: cells; conditions: Homo sapiens, MCF7, 48 h
Description: Antiproliferative activity against human MCF7 cells assessed as inhibition of cell proliferation incubated for 48 hrs by MTT assay

MCF7 [13] = experiment: Antiproliferative activity against human MCF7 cells assessed as inhibition of cell proliferation incubated for 48 hrs with 660 nm 0.2 to 1.5 W/cm2 light irradiation for 1 min at 6th hr of incubation time by MTT assay; format: functional, cell-based
[14] = Drug uptake in female BALB/c mouse kidney xenografted with human MCF7 cells at 5 mg/kg, iv measured after 4 hrs by fluorescence imaging analysis; format: ADME, organism-based; conditions: in vivo
MCF7 [15] = experiment: Induction of ROS generation in human MCF7 cells assessed as cell percentage with elevated ROS at 1 uM incubated for 6 hrs by DCFH-DA probe based flow cytometric analysis (reference value: 0.2 %); format: functional
[16] = Cytotoxicity against human MCF-10A cells assessed as inhibition of cell proliferation incubated for 48 hrs in absence of light irradiation by MTT assay; format: toxicity, cell-based
[17] = Toxicity in female BALB/c mouse xenografted with human MCF7 cells assessed as change in AST level at 5 mg/kg, iv measured after 14 days; format: organism-based; conditions: in vivo, 336 h, time 14 day
[18] = Induction of ROS generation in water assessed as decrease in ABDA absorption peak at 5 uM irradiated with 660 nm 0.4 W/cm2 light up to 5 mins by ABDA probe based UV-vis absorption spectra analysis; format: functional
[19] = Toxicity in female BALB/c mouse xenografted with human MCF7 cells assessed as effect on spleen histology at 5 mg/kg, iv measured after 14 days by H and E staining based analysis; format: organism-based; conditions: in vivo, 336 h, time 14 day
[20] = Toxicity in female BALB/c mouse xenografted with human MCF7 cells assessed as change in hemoglobin level at 5 mg/kg, iv measured after 14 days; format: organism-based; conditions: in vivo, 336 h, time 14 day
in vivo [21] = conditions: Sprague-Dawley, rat, po, 15 mg/kg
Description: AUC (0 to infinity) in Sprague-Dawley rat at 15 mg/kg, po administered via gavage and measured after 0.5 to 168 hrs by LC-MS analysis

[22] = Toxicity in female BALB/c mouse xenografted with human MCF7 cells assessed as change in creatinine level at 5 mg/kg, iv measured after 14 days; format: organism-based; conditions: in vivo, 336 h, time 14 day
Mus musculus = experiment: In vivo induction of ERalpha degradation in female BALB/c mouse xenografted with human MCF7 cells assessed as decrease in ERalpha level in tumor at 5 mg/kg, iv measured after 14 days with 660 nm 0.4 W/cm2 light irradiation for 5 mins at 4 hrs of incubation time by DAPI staining based immunofluorescence analysis; format: functional, organism-based; conditions: time 14.0 day
[23] = Induction of ROS generation in water at 1 uM irradiated with 660 nm 0.4 W/cm2 light up to 180 sec by DCFH probe based fluorescence spectra analysis; format: functional
[24] = Toxicity in female BALB/c mouse xenografted with human MCF7 cells assessed as change in creatinine level at 5 mg/kg, iv measured after 14 days with 660 nm 0.4 W/cm2 light irradiation for 5 mins at 4 hrs of incubation time; format: organism-based; conditions: in vivo, 336 h, time 14 day
in vivo [25] = conditions: Sprague-Dawley, rat, iv, 5 mg/kg; remark: listed apart in the source
Description: AUC (0 to infinity) in Sprague-Dawley rat at 5 mg/kg, iv measured after 0.5 to 168 hrs by LC-MS analysis

[26] = Toxicity in female BALB/c mouse xenografted with human MCF7 cells assessed as change in ALT level at 5 mg/kg, iv measured after 14 days with 660 nm 0.4 W/cm2 light irradiation for 5 mins at 4 hrs of incubation time; format: organism-based; conditions: in vivo, 336 h, time 14 day
in vivo [27] = conditions: Sprague-Dawley, rat, po, 15 mg/kg; remark: listed apart in the source
Description: Cmax in Sprague-Dawley rat at 15 mg/kg, po administered via gavage and measured after 0.5 to 168 hrs by LC-MS analysis

[28] = Toxicity in female BALB/c mouse xenografted with human MCF7 cells assessed as change in white blood cell level at 5 mg/kg, iv measured after 14 days; format: organism-based; conditions: in vivo, 336 h, time 14 day
[29] = Toxicity in female BALB/c mouse xenografted with human MCF7 cells assessed as effect on kidney histology at 5 mg/kg, iv measured after 14 days by H and E staining based analysis; format: organism-based; conditions: in vivo, 336 h, time 14 day
[30] = Toxicity in female BALB/c mouse xenografted with human MCF7 cells assessed as change in blood urea nitrogen level at 5 mg/kg, iv measured after 14 days; format: organism-based; conditions: in vivo, 336 h, time 14 day
[31] = Induction of ROS generation in water assessed as decrease in ABDA absorption peak at 1 uM irradiated with 660 nm 0.2 to 1.5 W/cm2 light for 5 mins by ABDA probe based UV-vis absorption spectra analysis; format: functional
MCF7 [32] = experiment: Antitumor activity against human MCF7 cells xenografted in female BALB/c mouse model assessed as reduction in tumor weight at 5 mg/kg, iv measured after 14 days with 660 nm 0.4 W/cm2 light irradiation for 5 mins at 4 hrs of incubation time; format: functional, organism-based; conditions: time 14.0 day
MCF7 [33] = experiment: cells; conditions: Homo sapiens, MCF7, light or radiation study; remark: listed apart in the source
Description: Antiproliferative activity against human MCF7 cells assessed as inhibition of cell proliferation incubated for 48 hrs with 660 nm 0.4 W/cm2 light irradiation for 4 min at 6th hr of incubation time by MTT assay

[34] = Photothermal effect of compound in water assessed as increase in temperature of solution at 1 uM incubated for 5 mins in presence of presence of 660 nm 0.2 to 1.5 W/cm2 light; format: functional
[35] = Toxicity in female BALB/c mouse xenografted with human MCF7 cells assessed as change in red blood cell level at 5 mg/kg, iv measured after 14 days; format: organism-based; conditions: in vivo, 336 h, time 14 day

CCN(CC)c1ccc2nc3c4ccccc4/c(=N\CCCCCCC(=O)NCCOc4ccc(C(=O)c5c(-c6ccc(O)cc6)sc6cc(O)ccc56)cc4)cc-3sc2c1
Activity (MCF7 [1]): 6.5%
T (MCF7 [2]): 29 °C
IC50 (MCF7 [3]): 0.55 µM
Drug uptake [4]: Active
Activity [5]: Non-toxic
Activity [6]: Non-toxic
Cmax (in vivo [7]): 0.0302 µg/mL
Activity (MCF7 [8]): Active
Activity [9]: Non-toxic
IC50 (MCF7 [10]): 0.13 µM
T (MCF7 [11]): 28.4 °C
IC50 (MCF7 [12]): 25.1 µM
Activity (MCF7 [13]): Active
Drug uptake [14]: Active
Activity (MCF7 [15]): 0.7%
IC50 at 48 h [16]: > 100 µM
Activity [17]: Non-toxic
Activity [18]: Active
Activity [19]: Non-toxic
Activity [20]: Non-toxic
AUC(0-inf) (in vivo [21]): 0.357 µg·h/mL
Activity [22]: Non-toxic
Activity (Mus musculus): Active; Superior To That Of Faslodex
Activity [23]: Active
Activity [24]: Non-toxic
AUC(0-inf) (in vivo [25]): 0.279 µg·h/mL
Activity [26]: Non-toxic
Cmax (in vivo [27]): 0.0175 µg/mL
Activity [28]: Non-toxic
Activity [29]: Non-toxic
Activity [30]: Non-toxic
Activity [31]: Active
Activity (MCF7 [32]): Active; Significant Performance Than Faslodex Observed
IC50 (MCF7 [33]): 0.16 µM
Activity [34]: Active
Activity [35]: Non-toxic
